Columns and labels:
[1] = test system: SK-BR-3 (human breast cancer); assay: Combination of Compound 1 and other antitumor agents (in vitro), CellTiter-Glo, median effect method; assay type: cell-based
Protocol: (§1) The supplier of each reagent, the suppliers of tumor cell lines, the media used, and the numbers of cells to be inoculated are shown in the tables below.
(§2) The cells were inoculated at 20 μL/well to a 384-well culture plate (Corning Inc.). The plate inoculated with the cells were cultured in an incubator set to 37° C. and 5% CO2. On the day following inoculation, each of mixed solutions of Compound 1 and each other antitumor agent at varying combinations of concentrations was added to the cells. Specifically, 8 serial dilutions (including (0 nM)) of Compound 1 and 10 serial dilutions (including (0 nM)) of the other antitumor agent were prepared using Leibovitz's L-15 medium containing 10% FBS, or ATCC formulated RPMI-1640 medium containing 10% FBS. Drug solutions in which equal amounts of the respective serial dilutions of the compounds were dispensed were mixed at a ratio of 1:1 to prepare a total of 80 mixed drug solutions including every combination. Each of these mixed drug solutions was added at 5 μL/well (N=4) to the plate, followed by further culture for 3 days under conditions of 37° C. and 5% CO2.
(§3) Three days later, CellTiter-Glo™ 2.0 Reagent (Promega Corporation) was added thereto at 25 μL/well, and chemiluminescence was measured using a plate reader (EnSpire® Multimode Plate Reader, PerkinElmer Japan Co., Ltd.).
(§4) The enhancement of an effect by combined use of the drugs was evaluated according to a method known in the art (a method described in Trends Pharmacol. Sci., 4, 450-454, 1983 or Pharmacol Rev., 58 (3), 621-81, 2006).
(§5) An average value from 4 wells of each combination was calculated from the obtained data, and a cell survival rate normalized against a control supplemented with a medium containing a vehicle was calculated. A Fa (fraction of affect) value was calculated by subtracting the cell survival rate from 1. Median effect analysis software CalcuSyn 2.0 (CalcuSyn, Inc.) for calculation by the median effect method was used in the calculation of CI.
(§6) As for the combinations of the concentrations of both the drugs for calculating CI, a Fa value closer to 1 presumably means a concentration range in which one of the drugs had too strong an effect, and a Fa value closer to 0 presumably means a concentration range in which any of the drugs had too weak an effect. Since these concentration ranges were not appropriate for the discussion of a synergistic effect, combinations that satisfied 0.2 S Fa 0.8 were extracted from the combinations of the respective concentrations of Compound 1 and the other antitumor agent on the basis of the calculated Fa value.
(§7) An effect of combined use was determined as shown in the table below (Pharmacol Rev., 58 (3), p. 621-81, 2006).

[2] = test system: KPL-4 (human breast cancer); assay: as above; assay type: cell-based
Protocol: as §1, §2, §3, §4, §5, §6, §7

[3] = Compound 1 0.412 nM + Cisplatin 6185 nM, ratio 1:15030, SK-BR-3
[4] = Compound 1 1.24 nM + Cisplatin 6185 nM, ratio 1:5010, SK-BR-3
[5] = Compound 1 3.70 nM + Cisplatin 687 nM, ratio 1:186, SK-BR-3
[6] = Compound 1 3.70 nM + Cisplatin 2062 nM, ratio 1:557, SK-BR-3
[7] = Compound 1 3.70 nM + Cisplatin 6185 nM, ratio 1:1670, SK-BR-3
[8] = Compound 1 68.6 nM + Paclitaxel 0.0229 nM, ratio 1:0.00033, KPL-4
[9] = Compound 1 68.6 nM + Paclitaxel […], ratio 1:0.00011, KPL-4
[10] = Compound 1 206 nM + Paclitaxel 0.617 nM, ratio 1:0.0030, KPL-4
[11] = Compound 1 206 nM + Paclitaxel 1.85 nM, ratio 1:0.0090, KPL-4
[12] = Compound 1 617 nM + Paclitaxel 1.85 nM, ratio 1:0.0030, KPL-4
[13] = Compound 1 1852 nM + Paclitaxel 1.85 nM, ratio 1:0.0010, KPL-4
[14] = Compound 1 5556 nM + Paclitaxel 1.85 nM, ratio 1:0.00033, KPL-4
[15] = Compound 1 5556 nM + Paclitaxel 5.56 nM, ratio 1:0.0010, KPL-4
[16] = Compound 1 16667 nM + Paclitaxel 1.85 nM, ratio 1:0.00011, KPL-4
[17] = Compound 1 50000 nM + Paclitaxel 1.85 nM, ratio 1:0.000037, KPL-4

**Q.** For `C=CC(=O)N1CCC[C@@H](n2nc(C(=O)Nc3ccc(CC(=O)N(C)C)c(C)c3C)c3c(N)ncnc32)C1` [Compound 1, (R)-1-(1-acryloylpiperidin-3-yl)-4-amino-N-(4-(2-(dimethylamino)-2-oxoethyl)-2,3-dimethylphenyl)-1H-pyrazolo[3,4-d]pyrimidine-3-carboxamide], which CI [1, 3] is on record?
**A.** 0.86

**Q.** What about the Fa [1, 3] of the same molecule?
**A.** 0.50

**Q.** And the CI [1, 4]?
**A.** 0.84

**Q.** What about the Fa [1, 4] of the same molecule?
**A.** 0.55

**Q.** What about the CI [1, 5] of the same molecule?
**A.** 0.78

**Q.** And the Fa [1, 5]?
**A.** 0.22

**Q.** What about the CI [1, 6] of the same molecule?
**A.** 0.79

**Q.** And the Fa [1, 6]?
**A.** 0.37

**Q.** What about the CI [1, 7] of the same molecule?
**A.** 0.63

**Q.** What about the Fa [1, 7] of the same molecule?
**A.** 0.65

**Q.** And the CI [2, 8]?
**A.** 0.03

**Q.** And the Fa [2, 8]?
**A.** 0.44

**Q.** And the CI [2, 9]?
**A.** 0.15

**Q.** And the Fa [2, 9]?
**A.** 0.32

**Q.** And the CI [2, 10]?
**A.** 0.50

**Q.** And the Fa [2, 10]?
**A.** 0.33

**Q.** What about the CI [2, 11] of the same molecule?
**A.** 0.30

**Q.** And the Fa [2, 11]?
**A.** 0.52

**Q.** And the CI [2, 12]?
**A.** 0.31

**Q.** What about the Fa [2, 12] of the same molecule?
**A.** 0.54

**Q.** What about the CI [2, 13] of the same molecule?
**A.** 0.36

**Q.** And the Fa [2, 13]?
**A.** 0.55

**Q.** And the CI [2, 14]?
**A.** 0.48

**Q.** And the Fa [2, 14]?
**A.** 0.57

**Q.** And the CI [2, 15]?
**A.** 0.44

**Q.** And the Fa [2, 15]?
**A.** 0.78

**Q.** And the CI [2, 16]?
**A.** 0.38

**Q.** And the Fa [2, 16]?
**A.** 0.66

**Q.** And the CI [2, 17]?
**A.** 0.13

**Q.** And the Fa [2, 17]?
**A.** 0.86

Source: patent publication US11696917B2, “Agent enhancing antitumor effect using pyrazolo[3,4-d]pyrimidine compound” (TAIHO PHARMACEUTICAL CO., LTD., priority 2017, dated 2023)
